Experimental findings from US8629251B2, “Specific detection and quantification of phosphatidic acid using an Arabidopsis trigalactosyldiacylglycerol-4 (TGD4) protein” (Board of Trustees of Michigan State University, priority 2008, dated 2014) are described below.

Structures are written as SMILES. “Also recorded” adds a separate entry of the source.

Assay [1] addresses T1, Arabidopsis TGD2, DsRed-TGD2C minimal domain (DR-25, TGD2C T8, residues 201-225, SEQ ID NO:12) (Arabidopsis thaliana, UniProt Q9LTR2).
T1 sequence (Q9LTR2 201-225): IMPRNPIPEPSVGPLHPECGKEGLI
Nature of the assay: Liposome-association assay, minimal domain DR-25. It is filed as binding. How it is done: (§1) The liposome association assay was performed as previously reported. (31). Briefly, lipids (dioleoyl-phosphatidylcholine, DOPC or dioleoyl-PA, DOPA) were incubated in TBS (50 mM Tris-HCl, pH 7; 0.1 M NaCl) at 37° C. for an hour followed by vigorous vortexing for 5 min. The liposomes were precipitated at 20,000 g and washed twice with ice-cold TBS.
(§2) Liposomes (200 μg) were mixed with purified DsRed-TGD2 fusion protein and TBS to make a final 100 μL solution. The mixture was incubated at 30° C. for 30 min and washed twice with ice-cold TBS by centrifugation at 20,000 g at 4° C. The liposome pellet mixed with sample buffer was analyzed by SDS-PAGE (28). Immuno-detection of the His-tagged protein was accomplished using the above mentioned Penta-His antibody at 1:15,000 and the anti mouse antibody at 1:75,000 dilution.
(§3) The protein band was visualized by chemiluminescent detection kit from Sigma. The autoradiography film was scanned, distinct protein bands were quantified using computer software Multi Gauge V3.0 (Fujifilm USA, Valhalla, N.Y.) and resulted data were plotted and analyzed by OriginPro8 (Origin lab corporation, Northampton, Mass.).

The target in assay [2] is T2, Arabidopsis TGD2, DsRed-TGD2C T5 (residues 119-300, SEQ ID NO:28) (Arabidopsis thaliana, UniProt Q9LTR2).
T2 sequence (Q9LTR2 119-300): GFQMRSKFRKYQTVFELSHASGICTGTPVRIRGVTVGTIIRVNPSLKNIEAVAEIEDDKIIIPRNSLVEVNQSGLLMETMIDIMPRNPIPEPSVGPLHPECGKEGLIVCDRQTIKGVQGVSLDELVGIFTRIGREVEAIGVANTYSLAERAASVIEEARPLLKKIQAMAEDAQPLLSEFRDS
As to the kind of experiment: Liposome-association assay, TGD2C T5 (119-300). It is filed as binding. As to conditions: FIG. 3C. The method, then: as §1, §2, §3

The target of assay [3] is T3, Arabidopsis TGD2, DsRed-TGD2C T8 (residues 201-225, SEQ ID NO:12) (Arabidopsis thaliana, UniProt Q9LTR2).
T3 sequence (Q9LTR2 201-225): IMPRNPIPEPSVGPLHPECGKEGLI
Nature of the assay: Protein-lipid overlay assay, minimal domain. In kind it is binding. As to conditions: FIG. 4B; compared to DR-WT. The method, then: Membrane lipid strips were purchased from Echelon Biosciences (Salt Lake City, Utah). The strips were first blocked with 3% bovine serum albumin in TBST (10 mM Tris-HCl, pH 8.0, 150 mM NaCl, and 0.25% Tween-20) for two hours and incubated in 0.5 μg/mL DsRed-TGD2 fusion protein solution in the blocking buffer at 4° C. overnight. The strips were washed 10 min for 3 times with TBST the next day and soaked in 3% bovine serum albumin in TBST with a Penta-His mouse monoclonal antibody (Sigma-Aldrich, St. Louis, Mo.) at 1:2,000 dilution at 4° C. overnight. The strips were washed twice with TBST and soaked in 3% bovine serum albumin in TBST with horseradish peroxidase-conjugated anti mouse antibody (Bio-Rad, Hercules, Calif.) at 1:20,000 dilution for an hour at room temperature. Following washing with TBST for 1 hour, the protein was detected by using the chemiluminescent detection system (Sigma-Aldrich).

Assay [4] has as its target T4, Arabidopsis TGD2, N-terminally truncated TGD2-dTMD-His (from Gly-119) (Arabidopsis thaliana, UniProt Q9LTR2).
T4 sequence (Q9LTR2 119-381): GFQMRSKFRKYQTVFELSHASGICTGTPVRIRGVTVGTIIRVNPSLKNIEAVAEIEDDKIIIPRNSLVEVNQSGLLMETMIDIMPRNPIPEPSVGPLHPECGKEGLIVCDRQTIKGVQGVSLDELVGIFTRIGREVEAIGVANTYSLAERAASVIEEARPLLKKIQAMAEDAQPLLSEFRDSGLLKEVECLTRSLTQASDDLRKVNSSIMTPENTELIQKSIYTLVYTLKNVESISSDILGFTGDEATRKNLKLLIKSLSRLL
Nature of the assay: Membrane lipid binding assay, TGD2-dTMD-His. Conditions: lipid membranes, FIG. 8A. How it is done: Commercially available membrane strips prespotted with lipids were purchased. (Echelon Biosciences, Salt Lake City, Utah). Prokaryotic phosphatidylcholine and PA were also purchased (Avanti Polar Lipids). Prokaryotic monogalactolipid, digalactolipid, sulfolipid, and phosphatidylglycerol were purified from Synechocystis PCC6803 by TLC of lipid extracts. Eukaryotic monogalactolipid and digalactolipid was isolated from pea leaves.
Approximately 5 μg of lipids were spotted onto a Hybond-C membrane (Amersham Pharmacia Biosciences). The membranes were first blocked with 3% BSA in TBST (10 mM Tris-HCl, pH 8.0/150 mM NaCl/0.1% Tween 20) for 1 h and incubated in 0.5 μg/ml TGD2 protein solution in the blocking buffer at 4° C. overnight. The blots were washed five times with TBST and soaked in 3% BSA in TBST with a Penta-His mouse monoclonal antibody (Qiagen) at a 1:1,000 dilution at room temperature overnight. The membranes were washed twice with TBST and soaked in 3% BSA in TBST with alkaline phosphatase-conjugated anti-mouse antibody (Jackson ImmunoResearch) at a 1:5,000 dilution for 1 hour at room temperature. After washing with TBST twice, the protein was detected by using the Immun-Star AP detection system (Bio-Rad).

With `CCCCCCCC/C=C\CCCCCCCC(=O)OC[C@H](COP(=O)(O)O)OC(=O)CCCCCCC/C=C\CCCCCCCC` [PA, phosphatidic acid], the PA binding entry is given as “sufficient to mediate specific binding to PA” in assay [1] (PA liposomes, FIG. 4A) and “strong binding” in assay [2]. Also, the “cooperativity of PA binding” value in assay [1] (mixed PA/PC liposomes, FIG. 5) was “loses positive cooperativity; also recorded: not cooperative”. Moreover, the “PA binding on membrane strip” value in assay [3] is “binds PA on the membrane strip, with apparent lower affinity”. Also, the binding of lipids result in assay [4] is given as “bound”.
